Laboratory results: patent US6355799B1, “Substituted benzene compounds, process for their preparation, and herbicidal and defoliant compositions containing them” (ISK Americas Incorporated, priority 1997, dated 2002)

How the values were obtained:
Assay type in all cases: in vivo
[1] = tested on: barnyardgrass (Echinochloa crus-galli, ECHCG); assay: Pre-emerge test, greenhouse herbicide activity screening; settings: for Pre-emerge herbicidal activity, phytotoxicity rating ECHCG: rating scale 0-100, 14 days after application; for pest or weed control at 63 g/ha / pest or weed control at 250 g/ha: Echinochloa crus-galli, pre-emergence, 336 h, pre-emerge, phytotoxicity rating 0-100 at 14 days after application, read-out: Pre-emerge Herbicidal Activity ECHCG; for pest or weed control at 63 g/ha: rate 63 g ai/ha; for pest or weed control at 250 g/ha: rate 250 g ai/ha
Outline: (§1)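 Fourteen days after spraying, crop and weed injury was graded visually from 0, no effect, to 100, every plant dead. Test substances were dissolved in acetone and applied at 15–1000 g ai/ha with a flat-fan nozzle. Application was either pre-emergence, one day after sowing, or post-emergence at the 2–3 leaf stage.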

[2] = tested on: green foxtail (Setaria viridis, SETVI); assay: as above; settings: for Pre-emerge herbicidal activity, phytotoxicity rating SETVI: rating scale 0-100, 14 days after application; for pest or weed control at 63 g/ha / pest or weed control at 250 g/ha: Setaria viridis, pre-emergence, 336 h, pre-emerge, phytotoxicity rating 0-100 at 14 days after application, read-out: Pre-emerge Herbicidal Activity SETVI; for pest or weed control at 63 g/ha: rate 63 g ai/ha; for pest or weed control at 250 g/ha: rate 250 g ai/ha
Outline: as §1

[3] = tested on: velvetleaf (Abutilon theophrasti, ABUTH); assay: as above; settings: for Pre-emerge herbicidal activity, phytotoxicity rating ABUTH: rating scale 0-100, 14 days after application; for pest or weed control at 63 g/ha / pest or weed control at 250 g/ha: Abutilon theophrasti, pre-emergence, 336 h, pre-emerge, phytotoxicity rating 0-100 at 14 days after application, read-out: Pre-emerge Herbicidal Activity ABUTH; for pest or weed control at 63 g/ha: rate 63 g ai/ha; for pest or weed control at 250 g/ha: rate 250 g ai/ha
Outline: as §1

[4] = tested on: sicklepod (Cassia obtusifolia, CASOB); assay: as above; settings: for Pre-emerge herbicidal activity, phytotoxicity rating CASOB: rating scale 0-100, 14 days after application; for pest or weed control at 63 g/ha / pest or weed control at 250 g/ha: Senna obtusifolia, pre-emergence, 336 h, pre-emerge, phytotoxicity rating 0-100 at 14 days after application, read-out: Pre-emerge Herbicidal Activity CASOB; for pest or weed control at 63 g/ha: rate 63 g ai/ha; for pest or weed control at 250 g/ha: rate 250 g ai/ha
Outline: as §1

[5] = tested on: large crabgrass (Digitaria sanguinalis, DIGSA); assay: as above; settings: for Pre-emerge herbicidal activity, phytotoxicity rating DIGSA: rating scale 0-100, 14 days after application; for pest or weed control at 63 g/ha / pest or weed control at 250 g/ha: Digitaria sanguinalis, pre-emergence, 336 h, pre-emerge, phytotoxicity rating 0-100 at 14 days after application, read-out: Pre-emerge Herbicidal Activity DIGSA; for pest or weed control at 63 g/ha: rate 63 g ai/ha; for pest or weed control at 250 g/ha: rate 250 g ai/ha
Outline: as §1

[6] = tested on: ivyleaf morningglory (Ipomoea hederacea, IPOHE); assay: as above; settings: for Pre-emerge herbicidal activity, phytotoxicity rating IPOHE: rating scale 0-100, 14 days after application; for pest or weed control at 63 g/ha / pest or weed control at 250 g/ha: Ipomoea, pre-emergence, 336 h, pre-emerge, phytotoxicity rating 0-100 at 14 days after application, read-out: Pre-emerge Herbicidal Activity IPOHE; for pest or weed control at 63 g/ha: rate 63 g ai/ha; for pest or weed control at 250 g/ha: rate 250 g ai/ha
Outline: as §1

[7] = tested on: johnsongrass (Sorghum halepense, SORHA); assay: as above; settings: for Pre-emerge herbicidal activity, phytotoxicity rating SORHA: rating scale 0-100, 14 days after application
Outline: as §1

[8] = tested on: lambsquarters (Chenopodium album, CHEAL); assay: as above; settings: for Pre-emerge herbicidal activity, phytotoxicity rating CHEAL: rating scale 0-100, 14 days after application; for pest or weed control at 63 g/ha / pest or weed control at 250 g/ha: Chenopodium album, pre-emergence, 336 h, pre-emerge, phytotoxicity rating 0-100 at 14 days after application, read-out: Pre-emerge Herbicidal Activity CHEAL; for pest or weed control at 63 g/ha: rate 63 g ai/ha; for pest or weed control at 250 g/ha: rate 250 g ai/ha
Outline: as §1

[9] = tested on: green foxtail (Setaria viridis, SETVI); assay: Post-emerge test, greenhouse herbicide activity screening; settings: Setaria viridis, post-emergence, 336 h, post-emerge, phytotoxicity rating 0-100 at 14 days after application, read-out: Post-emerge Herbicidal Activity SETVI; for pest or weed control at 63 g/ha: 63 g ai/ha; for pest or weed control at 250 g/ha: 250 g ai/ha
Outline: (§2)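 Herbicidal damage is scored 0 (none) to 100 (complete plant death) two weeks after a simulated field spray. Rates span 15–1000 g ai/ha, delivered in acetone at 187 l/ha. For post-emergence treatments, plants have 2–3 leaves and the spray carries 0.25% v/v non-ionic surfactant.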

[10] = tested on: sicklepod (Cassia obtusifolia, CASOB); assay: as above; settings: Senna obtusifolia, post-emergence, 336 h, post-emerge, phytotoxicity rating 0-100 at 14 days after application, read-out: Post-emerge Herbicidal Activity CASOB; for pest or weed control at 63 g/ha: 63 g ai/ha; for pest or weed control at 250 g/ha: 250 g ai/ha
Outline: as §2

[11] = tested on: large crabgrass (Digitaria sanguinalis, DIGSA); assay: as above; settings: Digitaria sanguinalis, post-emergence, 336 h, post-emerge, phytotoxicity rating 0-100 at 14 days after application, read-out: Post-emerge Herbicidal Activity DIGSA; for pest or weed control at 63 g/ha: 63 g ai/ha; for pest or weed control at 250 g/ha: 250 g ai/ha
Outline: as §2

[12] = tested on: lambsquarters (Chenopodium album, CHEAL); assay: as above; settings: Chenopodium album, post-emergence, 336 h, post-emerge, phytotoxicity rating 0-100 at 14 days after application, read-out: Post-emerge Herbicidal Activity CHEAL; for pest or weed control at 63 g/ha: 63 g ai/ha; for pest or weed control at 250 g/ha: 250 g ai/ha
Outline: as §2

[13] = tested on: redroot pigweed (Amaranthus retroflexus, AMARE); assay: Pre-emerge test, greenhouse herbicide activity screening; settings: for Pre-emerge herbicidal activity, phytotoxicity rating AMARE: rating scale 0-100, 14 days after application; for pest or weed control at 63 g/ha / pest or weed control at 250 g/ha: Amaranthus retroflexus, pre-emergence, 336 h, pre-emerge, phytotoxicity rating 0-100 at 14 days after application, read-out: Pre-emerge Herbicidal Activity AMARE; for pest or weed control at 63 g/ha: rate 63 g ai/ha; for pest or weed control at 250 g/ha: rate 250 g ai/ha
Outline: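 Sandy loam pots; pre-emerge: sown 1 d pre-spray, surface-watered after, then bottom-watered. Post-emerge: sown 8–21 d before, 2–3 leaf stage, + 0.25% v/v NIS, bottom-watered. Acetone, 187 l/ha track spray, 15–1000 g ai/ha. 0–100 injury score, day 14.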

Compound | pest or weed control at 63 g/ha [9] | pest or weed control at 250 g/ha [9] | pest or weed control at 63 g/ha [10] | pest or weed control at 250 g/ha [10] | pest or weed control at 63 g/ha [11] | pest or weed control at 250 g/ha [11] | pest or weed control at 63 g/ha [12] | pest or weed control at 250 g/ha [12] | pest or weed control at 63 g/ha [1] | pest or weed control at 250 g/ha [1] | pest or weed control at 63 g/ha [2] | pest or weed control at 250 g/ha [2] | pest or weed control at 63 g/ha [3] | pest or weed control at 250 g/ha [3] | pest or weed control at 63 g/ha [4] | pest or weed control at 250 g/ha [4] | pest or weed control at 63 g/ha [5] | pest or weed control at 250 g/ha [5] | pest or weed control at 63 g/ha [6] | pest or weed control at 250 g/ha [6] | also measured
COc1c(Cl)cc(F)c(N2C(=O)c3ccccc3C2=O)c1NC(=O)c1ccc2ccccc2c1 [Compound 13-3, N-[4-chloro-6-fluoro-3-methoxy-2-(2-naphthoyl)aminophenyl]phthalimide] | 10% | 30% | 90% | 100% | 0% | 10% | 100% | 100% | – | – | – | – | – | – | – | – | – | – | – | – | Pre-emerge herbicidal activity, phytotoxicity rating ECHCG ([1]; 63 g ai/ha): 0; Pre-emerge herbicidal activity, phytotoxicity rating ECHCG ([1]; 250 g ai/ha): 10; Pre-emerge herbicidal activity, phytotoxicity rating SETVI ([2]; 63 g ai/ha): 10; Pre-emerge herbicidal activity, phytotoxicity rating SETVI ([2]; 250 g ai/ha): 40; Pre-emerge herbicidal activity, phytotoxicity rating ABUTH ([3]; 63 g ai/ha): 0; Pre-emerge herbicidal activity, phytotoxicity rating ABUTH ([3]; 250 g ai/ha): 20; Pre-emerge herbicidal activity, phytotoxicity rating CASOB ([4]; 63 g ai/ha): 0; Pre-emerge herbicidal activity, phytotoxicity rating CASOB ([4]; 250 g ai/ha): 30; Pre-emerge herbicidal activity, phytotoxicity rating DIGSA ([5]; 63 g ai/ha): 0; Pre-emerge herbicidal activity, phytotoxicity rating DIGSA ([5]; 250 g ai/ha): 30; Pre-emerge herbicidal activity, phytotoxicity rating IPOHE ([6]; 63 g ai/ha): 0; Pre-emerge herbicidal activity, phytotoxicity rating IPOHE ([6]; 250 g ai/ha): 0; Pre-emerge herbicidal activity, phytotoxicity rating SORHA ([7]; 63 g ai/ha): 0; Pre-emerge herbicidal activity, phytotoxicity rating SORHA ([7]; 250 g ai/ha): 10; Pre-emerge herbicidal activity, phytotoxicity rating CHEAL ([8]; 63 g ai/ha): 90; Pre-emerge herbicidal activity, phytotoxicity rating CHEAL ([8]; 250 g ai/ha): 100; Pre-emerge herbicidal activity, phytotoxicity rating AMARE ([13]; 63 g ai/ha): 100; Pre-emerge herbicidal activity, phytotoxicity rating AMARE ([13]; 250 g ai/ha): 100
COc1c(Cl)cc(F)c(-c2nn(C)c(C(F)(F)F)c2Cl)c1NC(=O)c1ccc2ccccc2c1 [Compound 7-14] | – | 20% | – | 60% | – | 10% | – | 90% | 0% | 40% | 0% | 70% | 40% | 60% | 10% | 50% | 60% | 70% | 30% | 20% | pest or weed control at 63 g/ha [8]: 70%; pest or weed control at 250 g/ha [8]: 100%; pest or weed control at 63 g/ha [13]: 40%; pest or weed control at 250 g/ha [13]: 80%
COc1c(Cl)cc(Cl)c(-n2nc(C)n(C(F)F)c2=O)c1NC(=O)c1ccc2ccccc2c1 [Compound 6-17] | 0% | 30% | 50% | 70% | 0% | 20% | 90% | 90% | 10% | 90% | 70% | 99% | 30% | 95% | 0% | 20% | 30% | 99% | 0% | 30% | pest or weed control at 63 g/ha [8]: 100%; pest or weed control at 250 g/ha [8]: 100%; pest or weed control at 63 g/ha [13]: 90%; pest or weed control at 250 g/ha [13]: 100%
COc1c(Cl)cc(F)c(-n2nc(C)n(C(F)F)c2=O)c1NC(=O)c1ccc2ccccc2c1 [Compound 6-15] | 50% | 85% | 100% | 100% | 30% | 60% | 100% | 100% | 50% | 80% | 95% | 100% | 100% | 100% | 70% | 80% | 80% | 100% | 70% | 40% | pest or weed control at 63 g/ha ([7]; Sorghum halepense, pre-emergence, 336 h, pre-emerge, rate 63 g ai/ha, phytotoxicity rating 0-100 at 14 days after application, read-out: Pre-emerge Herbicidal Activity SORHA): 50%; pest or weed control at 250 g/ha ([7]; Sorghum halepense, pre-emergence, 336 h, pre-emerge, rate 250 g ai/ha, phytotoxicity rating 0-100 at 14 days after application, read-out: Pre-emerge Herbicidal Activity SORHA): 100%; pest or weed control at 63 g/ha [8]: 100%; pest or weed control at 250 g/ha [8]: 100%; pest or weed control at 63 g/ha [13]: 100%; pest or weed control at 250 g/ha [13]: 100%
Cc1nn(-c2c(Cl)cc(Cl)cc2NC(=O)c2ccc3ccccc3c2)c(=O)n1C(F)F [Compound 6-16] | 30% | 60% | 80% | 60% | 20% | 30% | 100% | 100% | 10% | 30% | 60% | 90% | 10% | 20% | 0% | 0% | 30% | 90% | 0% | 0% | pest or weed control at 63 g/ha [8]: 100%; pest or weed control at 250 g/ha [8]: 100%; pest or weed control at 63 g/ha [13]: 30%; pest or weed control at 250 g/ha [13]: 50%
